The text below walks through data of patent publication US9458095B2, “Oligo-benzamide compounds and their use in treating cancers” (The Board of Regents of the University of Texas System, priority 2011, dated 2016).

One experiment addresses T1, ARΔ1 (Homo sapiens, UniProt P10275).
T1 construct: expressed in transfected cells; host or cells: PC-3 cells
T1 sequence (P10275 540-920 limits assumed): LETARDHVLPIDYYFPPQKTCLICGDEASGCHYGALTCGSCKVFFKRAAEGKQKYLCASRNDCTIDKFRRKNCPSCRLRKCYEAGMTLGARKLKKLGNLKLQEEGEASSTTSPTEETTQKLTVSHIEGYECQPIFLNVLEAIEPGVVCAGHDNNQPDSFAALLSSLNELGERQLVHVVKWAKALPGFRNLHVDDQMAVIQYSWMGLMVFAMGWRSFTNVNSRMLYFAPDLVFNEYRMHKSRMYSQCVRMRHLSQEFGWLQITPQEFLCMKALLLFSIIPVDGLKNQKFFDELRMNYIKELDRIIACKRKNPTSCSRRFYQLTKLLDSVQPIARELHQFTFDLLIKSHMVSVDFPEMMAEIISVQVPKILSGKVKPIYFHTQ
Nature of the experiment: ARE-luciferase reporter in PC-3 cells expressing ARΔ1. In kind it is cell-based. The settings on record: 100 nM peptidomimetic, 48 h. On the procedure:
FIGS. 2A-D. Oligobenzamide control of PC3 cell proliferation. (FIG. 2A) Structure of AR deletion mutants with numbered exons (FIG. 2B) Effect of D2 and T6 on basal (AI) and AD transcription. PC-3 cells were transiently transfected with ARE-luciferase along with plasmids expressing ARwt (FIG. 2B), ARv7 (FIG. 2C) or ARΔ1 (FIG. 2D). Cells were maintained for 48 h either without (EtOH) or with (1 nM DHT) and in the presence of 100 nM of peptidomimetic or volume equivalent of vehicle (DMSO) control. Luciferase assay results are shown. Data is normalized to the basal level of expression with AR wt in PC3 cells.
Since the WxxLF motif is also present in the truncated forms of the androgen receptor, the inventors then evaluated the ability of the peptidomimetics to block ARv7-driven transcription from a minimal ARE luciferase reporter. […] These findings were confirmed with a synthetic AR with point mutations in the WxxLF motif (data not shown).

In the next experiment the target is T2, ARv7 (Homo sapiens, UniProt P10275).
T2 sequence (P10275 1-644 isoform P10275-3): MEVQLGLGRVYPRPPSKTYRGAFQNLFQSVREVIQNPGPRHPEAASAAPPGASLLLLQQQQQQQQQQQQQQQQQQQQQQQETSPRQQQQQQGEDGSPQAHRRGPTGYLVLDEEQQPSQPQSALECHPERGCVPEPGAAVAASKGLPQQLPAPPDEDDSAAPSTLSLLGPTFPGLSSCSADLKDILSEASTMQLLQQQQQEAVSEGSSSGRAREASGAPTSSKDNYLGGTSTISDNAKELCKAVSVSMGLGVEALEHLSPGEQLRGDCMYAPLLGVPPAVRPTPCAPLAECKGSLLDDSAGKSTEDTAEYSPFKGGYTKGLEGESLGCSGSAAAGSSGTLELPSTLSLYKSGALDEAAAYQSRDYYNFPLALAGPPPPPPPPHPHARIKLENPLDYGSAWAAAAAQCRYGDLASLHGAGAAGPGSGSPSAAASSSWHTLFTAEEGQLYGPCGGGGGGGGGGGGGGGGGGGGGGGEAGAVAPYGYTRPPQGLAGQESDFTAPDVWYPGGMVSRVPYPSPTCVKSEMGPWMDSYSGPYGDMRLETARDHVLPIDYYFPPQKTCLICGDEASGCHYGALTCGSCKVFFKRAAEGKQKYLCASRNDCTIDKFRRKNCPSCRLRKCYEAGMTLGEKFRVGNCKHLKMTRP
Nature of the experiment: Rat probasin-luciferase reporter in M12 cells with ARv7. In kind it is cell-based. As to conditions: 100 nM peptidomimetic, 48 h. Set-up: expressed in transfected cells; host or cells: M12 cells (A9). The procedure: FIG. 5. Effect of T6 on basal level of ARE expression in M12 cells. M12 cells were transiently transfected with the rat probasin-luciferase reporter and either ARwt or ARv7. Cells were maintained for 48 h without (EtOH) and in the presence of 100 nM of peptidomimetic or volume equivalent of vehicle (DMSO) control or 10 μM of MDV3100. Luciferase assay results are shown.
(In a reporter assay the amount or activity of a reporter protein is the signal.)

As to `CC(C)COc1cc(C(N)=O)ccc1NC(=O)c1ccc(NC(=O)c2ccc([N+](=O)[O-])c(OCCc3ccc4ccccc4c3)c2)c(OCC(C)C)c1` [T6], the ARΔ1-mediated transcription entry at ARΔ1 is “not able to block”. The “expression of rat probasin reporter in M12 cells driven by ARv7” value at ARv7 was “able to independently knock down”.
